{"source": "ChEMBL document CHEMBL1126383", "about": "“P-3A and ()-desacetamido P-3A: demonstration and Study of their effective functional cleavage of duplex DNA” (Bioorg Med Chem Lett, 1992)", "assay_type_in_all_cases": "functional", "key": {"Nucleic Acid [1]": {"tested_on": "Nucleic Acid", "experiment": "Relative efficiency of supercoiled phi X174 DNA cleavage was determined; 1.25-2"}, "Nucleic Acid [2]": {"tested_on": "Nucleic Acid", "experiment": "Relative efficiency of supercoiled phi X174 DNA cleavage was determined; 0.33-0.2"}, "Nucleic Acid [3]": {"tested_on": "Nucleic Acid", "experiment": "DNA cleavage selectivity selected within singly 5' -end labeled w794 DNA was determined; N - None"}, "Nucleic Acid [4]": {"tested_on": "Nucleic Acid", "experiment": "Relative efficiency of supercoiled phi X174 DNA cleavage was determined"}, "Nucleic Acid [5]": {"tested_on": "Nucleic Acid", "experiment": "Relative efficiency of supercoiled phi X174 DNA cleavage was determined; 4-10"}}, "note": "Calls of active or inactive are those of the source. No cut-off for these calls is given here.", "data": [{"smiles": "Cc1c(N)nc(C(CC(N)=O)NC[C@H](N)C(N)=O)nc1C(=O)NC(C(=O)NC(C)C(O)[C@H](C)C(=O)NC(C(=O)NCCc1nc(-c2nc(C(=O)NCCC[S+](C)C)cs2)cs1)C(C)O)C(O)c1c[nH]cn1", "note": "(stereo partly specified)", "values": [{"measurement": "Relative efficiency", "setting": "Nucleic Acid [1]", "value": 1.25}]}, {"smiles": "C[C@H](NC(=O)C(Cc1c[nH]cn1)NC(=O)c1cc(N)nc(CNC[C@H](N)C(N)=O)n1)C(=O)O", "note": "(stereo partly specified)", "values": [{"measurement": "Relative efficiency", "setting": "Nucleic Acid [2]", "value": 0.2}, {"measurement": "Selectivity", "setting": "Nucleic Acid [3]", "value": "inactive"}]}, {"smiles": "C[C@H](NC(=O)C(Cc1c[nH]cn1)NC(=O)c1cc(N)nc(C(CC(N)=O)NC[C@H](N)C(N)=O)n1)C(=O)O", "note": "(stereo partly specified)", "values": [{"measurement": "Relative efficiency", "setting": "Nucleic Acid [4]", "value": 1}, {"measurement": "Selectivity", "setting": "Nucleic Acid [3]", "value": "inactive"}]}, {"smiles": "Cc1c(N)nc([C@H](CC(N)=O)NC[C@H](N)C(N)=O)nc1C(=O)N[C@H](C(=O)N[C@H](C)[C@@H](O)[C@H](C)C(=O)N[C@H](C(=O)NCCc1nc(-c2nc(C(=O)NCCC[S+](C)C)cs2)cs1)[C@@H](C)O)[C@@H](O[C@@H]1O[C@@H](CO)[C@@H](O)[C@H](O)[C@@H]1O[C@H]1O[C@H](CO)[C@@H](O)[C@H](OC(N)=O)[C@@H]1O)c1c[nH]cn1", "values": [{"measurement": "Relative efficiency", "setting": "Nucleic Acid [5]", "value": 4}]}]}
